Experimental data: US20110155157A1, “CIGARETTE FILTER CONTAINING ROSEMARY EXTRACT AND A METHOD OF REDUCING DNA DAMAGE CAUSED BY HARMFUL AGENTS IN CIGARETTE SMOKE BY USE OF SAID FILTER” (priority 2006, published 2011)

Tested on: calf thymus DNA
Test: BPDE-dG adduct formation by cigarette smoke solution in a cell-free system with DNA and (+)-BP-7,8-diol

Substance: Catalase
- % BPDE-dG relative to standard CS (CSS diluted 1:19 with PBS pH 7.4, (+) BaP-7,8-diol, room temperature 2 h): 12%
- effect on the (−)-anti-BPDE-dG produced (in words): inhibited the formation of the adduct
